Results from publication PMC12073189, “Synthesis and Evaluation of a Novel Zuranolone Analog with High GABAA Receptor PAM Activity and Excellent Pharmacokinetic Profiles” (Molecules, 2025).

How the values were obtained:
α1β2γ2 GABAA receptor = target: T1, α1β2γ2 GABAA receptor (Homo sapiens, UniProt P14867+P47870); assay: Whole-cell electrophysiology of GABA-evoked currents, LTK cells; assay type: cell-based; details: for EC50 / Emax: LTK cells, n = 3; for EC50: 1 μmol/L GABA (EC20), read-out: α1β2γ2 EC50; for Emax: current induced by 1 μmol/L GABA = 100%; for activity as % of that of Zuranolone: GABAA receptor subtypes
T1 construct: expressed in transfected cells
T1 sequence (P14867 28-456): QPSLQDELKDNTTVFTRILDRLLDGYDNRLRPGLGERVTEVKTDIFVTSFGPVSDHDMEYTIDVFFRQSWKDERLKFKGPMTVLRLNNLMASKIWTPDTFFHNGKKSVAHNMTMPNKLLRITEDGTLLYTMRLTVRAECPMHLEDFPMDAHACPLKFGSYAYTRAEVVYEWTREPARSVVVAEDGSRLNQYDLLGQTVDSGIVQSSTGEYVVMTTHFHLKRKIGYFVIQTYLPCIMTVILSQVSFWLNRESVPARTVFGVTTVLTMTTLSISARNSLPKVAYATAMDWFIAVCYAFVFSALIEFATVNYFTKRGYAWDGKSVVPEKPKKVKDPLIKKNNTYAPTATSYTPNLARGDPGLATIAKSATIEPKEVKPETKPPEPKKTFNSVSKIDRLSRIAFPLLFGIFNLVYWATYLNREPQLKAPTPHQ
T1 sequence (P47870 25-512 limits assumed): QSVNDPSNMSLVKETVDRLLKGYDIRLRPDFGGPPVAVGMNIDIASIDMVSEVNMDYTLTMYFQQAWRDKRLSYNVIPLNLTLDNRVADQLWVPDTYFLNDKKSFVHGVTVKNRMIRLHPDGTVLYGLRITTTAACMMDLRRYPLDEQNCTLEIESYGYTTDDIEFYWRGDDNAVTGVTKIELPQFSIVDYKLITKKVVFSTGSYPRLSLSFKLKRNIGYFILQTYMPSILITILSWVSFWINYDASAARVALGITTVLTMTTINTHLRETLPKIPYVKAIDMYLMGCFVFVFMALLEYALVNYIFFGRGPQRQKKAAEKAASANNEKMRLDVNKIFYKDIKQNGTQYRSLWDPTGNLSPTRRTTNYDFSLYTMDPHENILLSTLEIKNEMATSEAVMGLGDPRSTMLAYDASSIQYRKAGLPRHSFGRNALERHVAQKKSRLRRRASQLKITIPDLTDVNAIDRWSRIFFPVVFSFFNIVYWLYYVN
T1 sequence (P18507 40-475 partner): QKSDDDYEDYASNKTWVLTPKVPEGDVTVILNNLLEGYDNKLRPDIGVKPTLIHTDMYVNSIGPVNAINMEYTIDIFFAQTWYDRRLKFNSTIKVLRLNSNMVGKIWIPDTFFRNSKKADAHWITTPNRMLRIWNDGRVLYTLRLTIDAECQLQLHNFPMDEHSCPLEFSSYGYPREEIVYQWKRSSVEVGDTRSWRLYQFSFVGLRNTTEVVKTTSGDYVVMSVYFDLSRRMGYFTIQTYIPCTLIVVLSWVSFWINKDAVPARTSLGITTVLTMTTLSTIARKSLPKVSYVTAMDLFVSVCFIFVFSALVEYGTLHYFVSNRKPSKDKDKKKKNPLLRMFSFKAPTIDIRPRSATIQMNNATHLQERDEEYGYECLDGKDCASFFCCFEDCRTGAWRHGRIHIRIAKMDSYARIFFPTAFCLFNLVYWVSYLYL
Experimental: (§1) The α1β2γ2 and α4β3δ GABAA receptor subtypes, representing synaptic and extrasynaptic subunit compositions in neurons, are widely utilized for screening new NAS drugs. In this study, a preliminary SAR study was conducted on a series of Zuranolone analogs using the LogP values predicted by ADMETlab3.0 software, recombinant human GABAA receptor cell lines, and in vitro liver microsome stability assays. The results are summarized in Table 1, Table 2, and Table 3, respectively.
(§2) The effects of Zuranolone and synthetic analogs on GABA-evoked currents were assessed in LTK cells stably expressing α1β2γ2 GABAA receptor subunits (n = 3) or CHO cells transiently expressing α4β3δ receptors (n = 3). Whole-cell mode recordings were conducted using the HEKA EPC-10 amplifier and analyzed with PatchMaster software (version 2x90, HEKA Elektronik, Lambrecht, Germany). High-throughput whole-cell recordings were performed using the Q-Patch method from Sophion. Test substances were dissolved in DMSO (dimethyl sulfoxide) to prepare 10 mmol/L stock solutions, then diluted with perfusion bath solution to concentrations ranging from 0.01 to 10 μmol/L. In this experiment, the effects of Zuranolone and its synthetic analogs on GABA-induced currents were examined in the presence of a submaximal agonist concentration at 1 μmol/L GABA (EC20). Cells were pre-incubated with increasing doses of test substances for 30 s, followed by 2 s of GABA stimulation, and currents were recorded. The maximum efficacy (Emax) of the GABAA receptor is expressed with the current induced by 1 μmol/L GABA taken as 100%, and the percentage after treatment with the test compound is calculated. The EC50 values are determined by fitting the three concentration–response curves recorded from three cells.

α4β3δ GABAA receptor = target: T2, α4β3δ GABAA receptor (Homo sapiens, UniProt P28472+P48169); assay: Whole-cell electrophysiology of GABA-evoked currents, CHO cells; assay type: cell-based; details: for EC50 / Emax: CHO cells, n = 3; for EC50: 1 μmol/L GABA (EC20), read-out: α4β3δ EC50; for Emax: current induced by 1 μmol/L GABA = 100%
T2 construct: expressed in transfected cells; host or cells: CHO cells (transient expression)
T2 sequence (P48169 36-554): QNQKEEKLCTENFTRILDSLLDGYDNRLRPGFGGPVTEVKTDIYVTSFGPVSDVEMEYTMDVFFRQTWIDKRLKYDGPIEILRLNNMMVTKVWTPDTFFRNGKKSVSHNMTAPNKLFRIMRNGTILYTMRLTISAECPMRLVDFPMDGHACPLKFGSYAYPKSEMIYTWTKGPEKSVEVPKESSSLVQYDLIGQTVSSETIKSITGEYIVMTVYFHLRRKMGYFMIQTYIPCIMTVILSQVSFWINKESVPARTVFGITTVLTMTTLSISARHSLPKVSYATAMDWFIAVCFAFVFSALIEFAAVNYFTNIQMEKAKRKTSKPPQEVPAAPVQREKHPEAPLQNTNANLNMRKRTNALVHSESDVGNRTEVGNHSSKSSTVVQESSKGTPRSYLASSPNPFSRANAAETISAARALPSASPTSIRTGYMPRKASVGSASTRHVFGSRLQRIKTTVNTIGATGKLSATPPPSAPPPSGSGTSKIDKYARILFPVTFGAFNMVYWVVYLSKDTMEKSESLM
T2 sequence (P28472 26-473): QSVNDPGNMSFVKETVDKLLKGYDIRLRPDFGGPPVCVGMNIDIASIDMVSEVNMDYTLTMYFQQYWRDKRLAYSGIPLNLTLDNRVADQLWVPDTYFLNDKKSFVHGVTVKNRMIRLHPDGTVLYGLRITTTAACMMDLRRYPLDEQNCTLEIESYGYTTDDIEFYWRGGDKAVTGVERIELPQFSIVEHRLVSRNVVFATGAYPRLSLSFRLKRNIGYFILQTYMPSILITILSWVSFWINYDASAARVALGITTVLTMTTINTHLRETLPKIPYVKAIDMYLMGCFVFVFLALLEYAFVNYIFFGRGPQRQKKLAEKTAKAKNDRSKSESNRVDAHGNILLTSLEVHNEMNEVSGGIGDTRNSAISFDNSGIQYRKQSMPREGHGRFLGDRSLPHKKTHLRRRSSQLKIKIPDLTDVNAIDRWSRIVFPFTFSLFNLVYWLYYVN
T2 sequence (O14764 25-452 partner): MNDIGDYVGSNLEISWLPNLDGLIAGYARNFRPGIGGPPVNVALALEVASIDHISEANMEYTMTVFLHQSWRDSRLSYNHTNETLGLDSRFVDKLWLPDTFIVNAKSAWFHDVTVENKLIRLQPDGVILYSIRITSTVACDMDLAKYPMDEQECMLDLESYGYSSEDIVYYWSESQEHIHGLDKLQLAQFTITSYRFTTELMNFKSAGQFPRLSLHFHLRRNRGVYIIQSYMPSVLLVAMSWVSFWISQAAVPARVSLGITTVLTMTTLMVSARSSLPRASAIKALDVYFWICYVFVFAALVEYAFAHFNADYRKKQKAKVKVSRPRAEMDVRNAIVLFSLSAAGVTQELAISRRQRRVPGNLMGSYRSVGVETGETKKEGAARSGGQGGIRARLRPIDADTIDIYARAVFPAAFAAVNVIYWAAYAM
Experimental: as §1, §2

[1] = Liver microsome metabolic stability (RLM); assay type: in vitro ADME, rat; details: pH 7.4; rat liver microsomes; read-out: RLM T1/2
Experimental: (§3) We quantified S1–S15 and Zuranolone using a UPLC-MS/MS (Agilent 1290 Infinity II UHPLC (Agilent Technologies, Santa Clara, CA, USA) coupled with a QTRAP 5500 MS/MS (ESI source) (SCIEX, Redwood City, CA, USA for MS/MS). The method assessed the content level of S9 and Zuranolone in microsome metabolism and in rat brain tissue and plasma. An ACQUITY UPLC Peptide BEH C18 column (Waters; 50 × 2.1 mm, 1.7 μm; 60 °C; Waters Corporation, Milford, MA, USA) was used with a mobile phase of 0.02% propionic acid in water (A) and acetonitrile (B). The gradient elution of the mobile phase B is carried out as follows: it is 10% from 0 to 0.5 min, 90% from 0.8 to 2.5 min, and 10% from 2.8 to 3.5 min, with a flow rate of 0.40 mL/min. Quantitative analysis was performed on a QTRAP 5500 MS (SCIEX, Redwood City, CA, USA) in positive ionization mode with MRM (multiple reaction monitoring), using progesterone-d9 as the internal standard. MRM transitions and parameters were optimized for each analyte, with collision energies of 25 V (S1–S15), 23 V (Zuranolone), and 30 V (IS), and declustering potentials of 80 V (S1–S15), 90 V (Zuranolone), and 180 V (IS). Other conditions were as follows: curtain gas 10 psi, collision gas ‘medium’, ion spray voltage 5500 V, temperature 500 °C, and ionization source gases 1 and 2 at 50 psi.
(§4) To evaluate the metabolic stability of compounds S1–S15 and Zuranolone in RLM and HLM, we designed the following in vitro liver microsome metabolism assay protocol. In a 1.5 mL centrifuge tube, sequentially add 173 μL of PBS (0.1 M, pH 7.4), 5 μL of liver microsomes (20 mg/mL), and 2 μL of the test compound (100 μmol/L). After thorough mixing, pre-incubate at 37 °C for 10 min. Subsequently, add 20 μL of NADPH to initiate the metabolism, with a parallel control without NADPH, to validate the background signal. Samples were collected at 0, 5, 10, 20, 30, and 60 min post-reaction initiation. At each designated time point, we quenched the reaction with ice-cold acetonitrile (600 μL). After centrifuging the mixture, we analyzed the supernatant using UPLC-MS/MS. For data analysis, the compound concentration at 0 min was set as 100%, with concentrations at subsequent time points expressed as residual percentages relative to the initial value, and the in vitro half-life (T1/2) and intrinsic clearance (CLint) were calculated.

[2] = Liver microsome metabolic stability (HLM); assay type: in vitro ADME, human; details: pH 7.4; human liver microsomes; read-out: HLM T1/2
Experimental: as §3, §4

## COCCn1ncn(CC(=O)[C@H]2CC[C@H]3[C@@H]4CC[C@@H]5C[C@](C)(O)CC[C@@H]5[C@H]4CC[C@]23C)c1=O [S1]
α1β2γ2 GABAA receptor
  EC50: 227 ± 52 nM
  Emax: 735 ± 75%
α4β3δ GABAA receptor
  EC50: 86 ± 25 nM
  Emax: 609 ± 83%
[1]
  half-life at 1 µM: 11 min
[2]
  half-life at 1 µM: 34 min

## C[C@@]1(O)CC[C@H]2[C@H](CC[C@@H]3[C@@H]2CC[C@]2(C)[C@@H](C(=O)Cn4ncn(CC5CC5)c4=O)CC[C@@H]32)C1 [S2]
α1β2γ2 GABAA receptor
  EC50: 58 ± 10 nM
  Emax: 320 ± 25%
α4β3δ GABAA receptor
  EC50: 140 ± 10 nM
  Emax: 450 ± 35%

## COc1ccc(-n2ncn(CC(=O)[C@H]3CC[C@H]4[C@@H]5CC[C@@H]6C[C@](C)(O)CC[C@@H]6[C@H]5CC[C@]34C)c2=O)cn1 [S3]
α1β2γ2 GABAA receptor; not separated
  activity as % of that of Zuranolone: less than 50%
α1β2γ2 GABAA receptor
  EC50: 167 ± 37 nM
  Emax: 389 ± 50%
α4β3δ GABAA receptor
  EC50: 134 ± 32 nM
  Emax: 474 ± 53%
[1]
  half-life at 1 μmol/L: 16 min
[2]
  half-life at 1 μmol/L: 73 min

## Cc1cc(-n2ncn(CC(=O)[C@H]3CC[C@H]4[C@@H]5CC[C@@H]6C[C@](C)(O)CC[C@@H]6[C@H]5CC[C@]34C)c2=O)cc(C)n1 [S4]
α1β2γ2 GABAA receptor; not separated
  activity as % of that of Zuranolone: less than 50%
α1β2γ2 GABAA receptor
  EC50: 171 ± 40 nM
  Emax: 691 ± 72%
α4β3δ GABAA receptor
  EC50: 41 ± 19 nM
  Emax: 563 ± 85%

## C[C@@]1(O)CC[C@H]2[C@H](CC[C@@H]3[C@@H]2CC[C@]2(C)[C@@H](C(=O)Cn4cnn(-c5cccnc5)c4=O)CC[C@@H]32)C1 [S5]
α1β2γ2 GABAA receptor
  EC50: 373 ± 45 nM
  Emax: 773 ± 87%
α4β3δ GABAA receptor
  EC50: 61 ± 15 nM
  Emax: 391 ± 64%
[1]
  half-life at 1 μmol/L: 11 min
[2]
  half-life at 1 μmol/L: 24 min

## C[C@@]1(O)CC[C@H]2[C@H](CC[C@@H]3[C@@H]2CC[C@]2(C)[C@@H](C(=O)Cn4cnn(-c5cc(Cl)ccn5)c4=O)CC[C@@H]32)C1 [S7]
α1β2γ2 GABAA receptor
  EC50: 109 ± 27 nM
  Emax: 624 ± 29%
α1β2γ2 GABAA receptor; synaptic and extrasynaptic GABAA receptor subtypes, not separated
  potency higher than Zuranolone: approximately 10%
α4β3δ GABAA receptor
  EC50: 72 ± 21 nM
  Emax: 589 ± 63%
[1]
  half-life at 1 μmol/L: 21 min
[2]
  half-life at 1 μmol/L: 69 min

## C[C@@]1(O)CC[C@H]2[C@H](CC[C@@H]3[C@@H]2CC[C@]2(C)[C@@H](C(=O)Cn4cnn(-c5ccnc(C(F)F)c5)c4=O)CC[C@@H]32)C1 [S8]
α1β2γ2 GABAA receptor
  EC50: 83 ± 24 nM
  Emax: 600 ± 69%
α1β2γ2 GABAA receptor; synaptic GABAA receptors
  potency as % of that of Zuranolone: 140%
α4β3δ GABAA receptor
  EC50: 49 ± 15 nM
  Emax: 432 ± 55%
α4β3δ GABAA receptor; extrasynaptic GABAA receptors
  potency as % of that of Zuranolone: 150%
[1]
  half-life at 1 μmol/L: 29 min
[2]
  half-life at 1 μmol/L: 23 min

## C[C@@]1(O)CC[C@H]2[C@H](CC[C@@H]3[C@@H]2CC[C@]2(C)[C@@H](C(=O)Cn4ncn(-c5ccc(F)cc5)c4=O)CC[C@@H]32)C1 [S10]
α1β2γ2 GABAA receptor; not separated
  activity as % of that of Zuranolone: less than 50%
α1β2γ2 GABAA receptor
  EC50: 12.4 ± 5 nM
  Emax: 294 ± 52%
α4β3δ GABAA receptor
  EC50: 148 ± 25 nM
  Emax: 428 ± 45%
[1]
  half-life at 1 μmol/L: 10 min
[2]
  half-life at 1 μmol/L: 33 min

## C[C@@]1(O)CC[C@H]2[C@H](CC[C@@H]3[C@@H]2CC[C@]2(C)[C@@H](C(=O)Cn4cnn(-c5cccc(C(N)=O)c5)c4=O)CC[C@@H]32)C1 [S12]
α1β2γ2 GABAA receptor; not separated
  activity as % of that of Zuranolone: less than 50%
α1β2γ2 GABAA receptor
  EC50: 153 ± 33 nM
  Emax: 764 ± 65%
α4β3δ GABAA receptor
  EC50: 159 ± 20 nM
  Emax: 386 ± 50%
[1]
  half-life at 1 μmol/L: 18 min
[2]
  half-life at 1 μmol/L: 29 min

## C[C@@]1(O)CC[C@H]2[C@H](CC[C@@H]3[C@@H]2CC[C@]2(C)[C@@H](C(=O)Cn4cnn(-c5cc(F)cc(C#N)c5)c4=O)CC[C@@H]32)C1 [S13]
α1β2γ2 GABAA receptor
  EC50: 72 ± 16 nM
  Emax: 518 ± 87%
α4β3δ GABAA receptor
  EC50: 37 ± 12 nM
  Emax: 549 ± 101%
[1]
  half-life at 1 μmol/L: 90 min
[2]
  half-life at 1 μmol/L: 40 min

## C[C@@]1(O)CC[C@H]2[C@H](CC[C@@H]3[C@@H]2CC[C@]2(C)[C@@H](C(=O)Cn4cnn(CCOC(F)(F)F)c4=O)CC[C@@H]32)C1 [S14]
α1β2γ2 GABAA receptor
  EC50: 770 ± 104 nM
  Emax: 576 ± 78%
α4β3δ GABAA receptor
  EC50: 460 ± 59 nM
  Emax: 889 ± 126%
[1]
  half-life at 1 μmol/L: 23 min
[2]
  half-life at 1 μmol/L: 31 min

## C[C@@]1(O)CC[C@H]2[C@H](CC[C@@H]3[C@@H]2CC[C@]2(C)[C@@H](C(=O)Cn4c(=O)n(-c5ccccc5)c5ccccc54)CC[C@@H]32)C1 [S15]
α1β2γ2 GABAA receptor
  EC50: 31 ± 12 nM
  Emax: 305 ± 62%
α4β3δ GABAA receptor
  EC50: 55 ± 15 nM
  Emax: 470 ± 94%
[1]
  half-life at 1 μmol/L: 210 min
[2]
  half-life at 1 μmol/L: 248 min
